Where two headings read alike, the source gives them in different places.
Assays:
Drosophila OR98a = biological target: T1, Drosophila OR98a (Drosophila melanogaster, UniProt Q9VAZ3); experiment: Calcium ion fluorescence (GCaMP6) assay, OR98a stable HEK293 cell line; format: cell-based; conditions: for Average response: OR98a cell line, average of biological replicates, fraction of VUAA1 response
T1 construct: expressed in transfected cells
T1 sequence (Q9VAZ3 1-397): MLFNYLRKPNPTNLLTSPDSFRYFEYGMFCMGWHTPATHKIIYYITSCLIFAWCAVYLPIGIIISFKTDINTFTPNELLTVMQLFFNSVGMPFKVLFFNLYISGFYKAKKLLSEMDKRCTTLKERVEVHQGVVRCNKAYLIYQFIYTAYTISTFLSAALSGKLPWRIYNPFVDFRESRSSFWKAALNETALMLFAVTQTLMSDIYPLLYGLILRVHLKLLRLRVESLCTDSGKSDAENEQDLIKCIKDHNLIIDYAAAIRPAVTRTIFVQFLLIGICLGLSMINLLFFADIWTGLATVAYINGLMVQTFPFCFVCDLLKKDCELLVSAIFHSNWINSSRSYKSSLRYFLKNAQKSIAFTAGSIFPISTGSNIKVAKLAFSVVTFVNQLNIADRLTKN
T1 sequence (Q9VNB5 1-486 partner): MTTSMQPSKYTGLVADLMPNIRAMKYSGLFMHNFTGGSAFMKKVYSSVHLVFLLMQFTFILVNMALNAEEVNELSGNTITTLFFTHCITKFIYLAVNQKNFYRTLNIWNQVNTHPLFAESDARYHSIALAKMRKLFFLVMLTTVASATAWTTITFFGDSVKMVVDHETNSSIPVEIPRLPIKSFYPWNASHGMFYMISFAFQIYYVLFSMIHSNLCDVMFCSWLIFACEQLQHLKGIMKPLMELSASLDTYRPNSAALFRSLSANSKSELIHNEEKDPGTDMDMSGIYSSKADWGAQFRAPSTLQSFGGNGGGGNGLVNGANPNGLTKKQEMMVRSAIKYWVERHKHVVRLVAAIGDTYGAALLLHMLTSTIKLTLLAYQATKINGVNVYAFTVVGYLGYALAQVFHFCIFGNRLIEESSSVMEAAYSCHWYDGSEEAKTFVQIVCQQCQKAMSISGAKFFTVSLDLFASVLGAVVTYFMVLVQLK
Experimental: (§1) These VUAA1 normalized ∆F values were used to compare the different receptors and ligands.
(§2) The concentration-dependent effect of the reference ligands on their cognate cell lines was examined in more detail. Twelve different ligand concentrations were measured on each cell line in an overall 0.01 μM to 100 μM concentration range with 5 repetitions with three technical replicates each time.
(§3) Twelve thousand to 18,000 cells were plated into each well of a black wall, transparent bottom 384-well microplate (Greiner) 48 h or 72 h before the measurements and were simultaneously treated with 1 μg/mL doxycycline. […] The plate has 24 columns, thus we could record responses in up to eight different cell lines in each plate. On the day of the experiment, the growth medium was replaced with 20 µL assay buffer/well (140 mM NaCl, 5 mM KCl, 2 mM CaCl2, 1 mM MgCl2, 5 mM HEPES-Na, 20 mM glucose, pH 7.3, 340 mOsm). […] Baseline fluorescence (F0) was recorded for 5 s, after which 7 µL VOC buffer (140 mM NaCl, 5 mM KCl, 2 mM CaCl2, 1 mM MgCl2, 5 mM HEPES-Na, 31 mM glucose, 0.1% DMSO, pH 7.3, 340 mOsm) was injected into each well in one row and the fluorescence response was recorded for an additional 30 s, at a rate of one read/sec. VOC solutions (VOC buffer with 4× concentration of the final measured VOC concentration, 9 µL/well was injected) were measured on the same wells in a second round with the same protocol. Each individual concentration of a specific VOC sample was recorded in three wells for the same cell line on the same microplate. The raw data were exported in xls file format, F0 and FMAX values, and the fluorescence intensity changes (∆F) were calculated in Excel (Microsoft) (Supplementary file Data summary.xlsx) using the following equation: ΔF=FMAX-F0/F0 (see also Fig. 1C). On each plate, we recorded the response of each cell line to 50 µM VUAA1. The average of these ∆F values of each cell line were used to calculate the VUAA1-normalized values for the rest of the plate, by dividing VOC response ∆F values by the average VUAA1 response ∆F value of the corresponding OR cell line. Each VOC-OR combination was measured three times as technical replicates. […] The average of these replicates were used as one ∆F and VUAA1-normalized ∆F in the following analysis.
(§4) In the next rows we tested the reference VOCs (or other VOCs known to activate the corresponding cell lines), in order to test if all cell lines are responsive. The remaining rows were used to test VOCs with unknown effect.
(§5) The recorded FMAX, F0, ∆F, VUAA1-normalized ∆F values, as well as the OR name, the name of the tested sample, and the final concentration for each well were copied into supplementary file Data summary.xlsx, that was used to summarize all the plates recorded. Here, the averages of the measurements were calculated for each receptor-VOC-concentration combination.

Drosophila OR47a = biological target: T2, Drosophila OR47a (Drosophila melanogaster, UniProt P81921); experiment: Calcium ion fluorescence (GCaMP6) assay, OR47a stable HEK293 cell line; format: cell-based; conditions: for OR47a Average response (VUAA1-normalized): 50 μM VUAA1 = 1; for Average response: OR47a cell line, mean of biological replicates
T2 construct: expressed in transfected cells
T2 sequence (P81921 1-385): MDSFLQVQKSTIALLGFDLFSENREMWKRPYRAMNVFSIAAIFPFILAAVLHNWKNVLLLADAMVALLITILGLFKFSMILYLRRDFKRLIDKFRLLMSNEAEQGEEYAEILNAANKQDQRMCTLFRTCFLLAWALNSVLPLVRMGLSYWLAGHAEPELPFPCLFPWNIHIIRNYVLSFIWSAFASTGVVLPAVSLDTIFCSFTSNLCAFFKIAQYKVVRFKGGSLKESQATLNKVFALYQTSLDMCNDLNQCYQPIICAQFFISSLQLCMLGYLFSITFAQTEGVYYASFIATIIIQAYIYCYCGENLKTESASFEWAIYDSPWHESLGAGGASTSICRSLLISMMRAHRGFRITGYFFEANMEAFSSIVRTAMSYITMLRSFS
T2 sequence (Q9VNB5 1-486 partner): T1 sequence (Q9VNB5 1-486 partner)
Experimental: as §1, §2, §3, §4, §5

[1] = ligand concentration 1 (unit not given), threshold 0.05, below shown as 0
[2] = ligand concentration 10 (unit not given), threshold 0.05, below shown as 0
[3] = ligand concentration 100 (unit not given), threshold 0.05, below shown as 0
[4] = concentration 1, normalized fluorescence change, values below 0.05 threshold given as 0
[5] = concentration 10, normalized fluorescence change, values below 0.05 threshold given as 0
[6] = concentration 100, normalized fluorescence change, values below 0.05 threshold given as 0
[7] = HEK293, read-out: Average response
[8] = HEK293, read-out: OR98a response (VUAA1-normalized response)
[9] = HEK293, read-out: OR47a response (VUAA1-normalized response)

CC/C=C/CCO [e3-hexenol]
Average response (Drosophila OR98a; cc. 1 µM): 0.00 | Average response (Drosophila OR98a; cc. 10 µM): 0.00 | Average response (Drosophila OR98a; cc. 100 µM): 0.00 | DF norm AVERAGE OR98a (Drosophila OR98a; [1]): 0 | DF norm AVERAGE OR98a (Drosophila OR98a; [2]): 0 | DF norm AVERAGE OR98a (Drosophila OR98a; [3]): 0 | OR47a Average response (VUAA1-normalized) (Drosophila OR47a; 1 μM VOC): 0.06 | OR47a Average response (VUAA1-normalized) (Drosophila OR47a; 10 μM VOC): 0.00 | OR47a Average response (VUAA1-normalized) (Drosophila OR47a; 100 μM VOC): 0.14 | Average response (Drosophila OR47a; odorant cc. 1 µM): 0.06 | Average response (Drosophila OR47a; odorant cc. 10 µM): 0.00 | Average response (Drosophila OR47a; odorant cc. 100 µM): 0.14 | DF norm AVERAGE OR47a (Drosophila OR47a; [1]): 0.06256 | DF norm AVERAGE OR47a (Drosophila OR47a; [2]): 0 | DF norm AVERAGE OR47a (Drosophila OR47a; [3]): 0.1396

(-)-alpha-cedrene
OR98a response (VUAA1-normalized response) (Drosophila OR98a; VOC concentration 1 μM): 0.00 | OR98a response (VUAA1-normalized response) (Drosophila OR98a; VOC concentration 10 μM): 0.00 | OR98a response (VUAA1-normalized response) (Drosophila OR98a; VOC concentration 100 μM): 0.00 | Average response (Drosophila OR98a; cc. 1 µM): 0.00 | Average response (Drosophila OR98a; cc. 10 µM): 0.0421 | Average response (Drosophila OR98a; cc. 100 µM): 0.0341 | DF norm AVERAGE OR98a (Drosophila OR98a; [4]): 0 | DF norm AVERAGE OR98a (Drosophila OR98a; [5]): 0 | DF norm AVERAGE OR98a (Drosophila OR98a; [6]): 0 | Average response (Drosophila OR47a; odorant cc. 1 µM): 0.00 | Average response (Drosophila OR47a; odorant cc. 10 µM): 0.00 | Average response (Drosophila OR47a; odorant cc. 100 µM): 0.02 | OR47a response (VUAA1-normalized response) (Drosophila OR47a; VOC concentration 1 μM): 0.00 | OR47a response (VUAA1-normalized response) (Drosophila OR47a; VOC concentration 10 μM): 0.00 | OR47a response (VUAA1-normalized response) (Drosophila OR47a; VOC concentration 100 μM): 0.00 | DF norm AVERAGE OR47a (Drosophila OR47a; [4]): 0 | DF norm AVERAGE OR47a (Drosophila OR47a; [5]): 0 | DF norm AVERAGE OR47a (Drosophila OR47a; [6]): 0

Cc1ccc(C)c(C)c1 [1,2,4-trimethylbenzene]
activation at 1 µM (Drosophila OR98a; [7]): 0% | activation at 10 µM (Drosophila OR98a; [7]): 13% | activation at 100 µM (Drosophila OR98a; [7]): 5% | activation at 1 µM (Drosophila OR98a; [8]): 0% | activation at 10 µM (Drosophila OR98a; [8]): 13% | activation at 100 µM (Drosophila OR98a; [8]): 5% | DF norm AVERAGE OR98a (Drosophila OR98a; [4]): 0 | DF norm AVERAGE OR98a (Drosophila OR98a; [5]): 0.1254 | DF norm AVERAGE OR98a (Drosophila OR98a; [6]): 0.05229 | activation at 1 µM (Drosophila OR47a; [9]): 0% | activation at 10 µM (Drosophila OR47a; [9]): 0% | activation at 100 µM (Drosophila OR47a; [9]): 0% | Average response (Drosophila OR47a; odorant cc. 1 µM): 0.00 | Average response (Drosophila OR47a; odorant cc. 10 µM): 0.00 | Average response (Drosophila OR47a; odorant cc. 100 µM): 0.00 | DF norm AVERAGE OR47a (Drosophila OR47a; [4]): 0 | DF norm AVERAGE OR47a (Drosophila OR47a; [5]): 0 | DF norm AVERAGE OR47a (Drosophila OR47a; [6]): 0

CCCCOC(C)=O [butyl acetate]
activation at 1 µM (Drosophila OR98a; [7]): 3.31% | activation at 10 µM (Drosophila OR98a; [7]): 0% | activation at 100 µM (Drosophila OR98a; [7]): 4.29% | activation at 1 µM (Drosophila OR98a; [8]): 0% | activation at 10 µM (Drosophila OR98a; [8]): 0% | activation at 100 µM (Drosophila OR98a; [8]): 0% | DF norm AVERAGE OR98a (Drosophila OR98a; [1]): 0 | DF norm AVERAGE OR98a (Drosophila OR98a; [2]): 0 | DF norm AVERAGE OR98a (Drosophila OR98a; [3]): 0

From PMC10709440, “High-throughput ligand profile characterization in novel cell lines expressing seven heterologous insect olfactory receptors for the detection of volatile plant biomarkers” (Scientific Reports, 2023)
